Where two headings read alike, the source gives them in different places.
Experiments:
[1] = tested on: βIII-tubulin expressing HeLa cell line (WTβIII); test: Inhibition of cellular proliferation, SRB assay, βIII-tubulin expressing WTβIII cell line; type: cell-based; conditions: for IC50: WTβIII, average of 3-4 independent experiments
Description: (§1) The HeLa cervical cancer cell line, the SK-OV-3 ovarian cancer cell line and the PC-3 prostate cancer cell line were obtained from American Type Tissue Culture Collection (Manassas, Va.) and grown in Basal Media Eagle (BME) or RPMI 1640 medium (Invitrogen; Carlsbad, Calif.) supplemented with 10% fetal bovine serum (Hyclone; Logan, Utah) and 50 μg/ml gentamicin sulfate (Invitrogen). The P-glycoprotein expressing SK-OV-3/MDR-1-6/6 cell line and the βIII-tubulin expressing WTβIII cell line have been described previously (Risinger et al., 2008).
(§2) The antiproliferative and cytotoxic effects of the taccalonolides were evaluated using the SRB assay (Skehan et al., 1990, Boyd and Paull, 1995) as previously described (Tinley et al., 2003). The concentration of drug that causes 50% inhibition of cellular proliferation (IC50) was calculated from the linear portion of the log dose response curve. The ability of the compounds to initiate cytotoxicity was also determined. […] The determination of IC50 values was performed on taccalonolide material after NMR analysis and subsequent lyophilization. Ethanol or DMSO was used as the vehicle for all cellular studies.
(§3) The ability of taccalonolides AF and AJ to inhibit the proliferation of both drug sensitive cancer cells, including ovarian cancer cells (SK-OV-3), cervical cancer cells (HeLa) and prostate cancer cells (PC-3) and drug resistant cells, including the P-glycoprotein expressing SK-OV-3 line (SK-OV-3/MDR-1-6/6) and the βIII-tubulin expressing HeLa cell line (WTβIII) was determined.
(§4) Referring to Table 3, the effect of the taccalonolides in drug resistant and sensitive cells is shown. IC50 values for inhibition of cellular proliferation for taccalonolides AF and AJ were determined in drug sensitive and drug resistant cell lines. The HeLa cell pair evaluated the effect of βIII tubulin expression on cell sensitivity and the ability of compounds to overcome drug resistance mediated by βIII tubulin expression. The SK-OV-3 cell line pair was used to evaluate the effects of the expression of P-glycoprotein (Pgp) on cell sensitivity and the ability of compounds to overcome Pgp-mediated drug resistence. The effects of the taccalonolides on the drug senstive prostate cancer cell line PC-3 are also presented. IC50 values were calculated from an average of 3-4 independent experiments, each performed in triplicate.

[2] = tested on: SK-OV-3 ovarian cancer cell line; test: Inhibition of cellular proliferation, SRB assay, SK-OV-3 cells; type: cell-based; conditions: average of 3-4 independent experiments
Description: as §1, §2, §3
(§5) Referring to Table 3, the effect of the taccalonolides in drug resistant and sensitive cells is shown. IC50 values for inhibition of cellular proliferation for taccalonolides AF and AJ were determined in drug sensitive and drug resistant cell lines. The HeLa cell pair evaluated the effect of βIII tubulin expression on cell sensitivity and the ability of compounds to overcome drug resistance mediated by βIII tubulin expression. […] IC50 values were calculated from an average of 3-4 independent experiments, each performed in triplicate.

[3] = tested on: SK-OV-3/MDR-1-6/6 cell line; test: Inhibition of cellular proliferation, SRB assay, P-glycoprotein expressing SK-OV-3/MDR-1-6/6 cells; type: cell-based; conditions: for IC50: SK-OV-3/MDR-1-6/6, average of 3-4 independent experiments
Description: as §1, §2, §3, §4

[4] = tested on: PC-3 prostate cancer cell line; test: Inhibition of cellular proliferation, SRB assay, PC-3 cells; type: cell-based; conditions: average of 3-4 independent experiments
Description: as §1, §2, §3, §5

MDA-MB-231-BR-Luc2 cells = test: Growth of intracranially injected breast cancer cells in the brain, luciferase imaging; type: in vivo, female athymic nude mice; conditions: for brain tumor photon counts, day 0: day 0, 10 second exposure; for brain tumor photon counts, day 0 / brain tumor photon counts, day 7: one mouse each, AF 2.2 mg/kg ip, paclitaxel 20 mg/kg ip on days 0 and 4; for brain tumor photon counts, day 7: day 7, 10 second exposure
Description: Referring to FIG. 15, A brain-seeking clone of the MDA-MB-231 triple negative breast cancer cell line stably transfected with luciferase was injected intracranially (1×10^6 MDA-MB-231-BR-Luc2 cells in 5 μL PBS) into female athymic nude mice. […] On day 7, mice were again imaged as described above (FIGS. 15C, D). The brain tumor in the mouse treated with taccalonolide AF measured 2.2×10^3 photon counts with an exposure time of 10 seconds on day 0 but was undetectable with the same 10 second exposure time on day 7. A longer exposure time of 60 seconds gave a photon count of 2.4×10^3.

HeLa cells [5] = test: Cell cycle distribution by flow cytometry; conditions: 18 h, 125 nM AF, 200 nM AI, 35 nM AJ
HeLa cells [6] = test: Inhibition of cellular proliferation, SRB assay, HeLa cells; type: cell-based
Description: The ability of the compounds to initiate cytotoxicity was also determined. […] The determination of IC50 values was performed on taccalonolide material after NMR analysis and subsequent lyophilization. Ethanol or DMSO was used as the vehicle for all cellular studies.
The antiproliferative potencies of the taccalonolides were evaluated in HeLa cells using the SRB assay.

[7] = tested on: purified porcine brain tubulin; test: Tubulin polymerization followed turbidimetrically; type: biochemical; conditions: 10 μM compound, 2 mg/ml tubulin, 10% glycerol, 1 mM GTP, 37° C., OD340
Description: The ability of these new potent taccalonolides to interact directly with tubulin was assessed by incubating purified porcine brain tubulin at a concentration of 2 mg/ml in the presence of 10% glycerol and 1 mM GTP, which allows for a baseline level of tubulin polymerization that can be followed turbidimetrically (FIG. 5).
Tubulin polymerization was monitored by turbidity measurement at OD340.

[8] = tested on: MDA-MB-231 human breast tumors; test: Antitumor activity in MDA-MB-231 breast tumor xenograft; type: in vivo, Nude mice; conditions: 2.5 mg/kg on days 0 and 4 or 2.0 mg/kg on days 0, 3, and 7
Description: The ability of taccalonolide AF to inhibit the growth of the aggressive human breast tumor MDA-MB-231 in a murine host was determined. Taccalonolide AF was administered at a dose of 2.5 mg/kg on days 0 and 4 or 2.0 mg/kg on days 0, 3, and 7.
Referring to FIG. 6, Nude mice bearing bilateral MDA-MB-231 human breast tumors were treated with 2.0 mg/kg of AF on days 0, 3 and 7, 2.5 mg/kg AF on days 0 and 4, or 10 mg/kg PTX on days 0, 2, 4 and 7 as a positive control. Tumor volume was measured using calipers and mass calculated with the formula: Tumor mass (mg)=0.5×[…]. Median tumor mass with standard error of the mean (n=10) are graphically represented. *p<0.05, **p<0.01.

[9] = tested on: human mammary epithelial cells; test: Cytotoxicity to normal cells; type: cell-based; conditions: concentrations 5 to 100-fold the IC50 values in the HeLa cancer cell line
HeLa cells [10] = test: Mitotic spindle structures, indirect immunofluorescence; type: cell-based; conditions: 18 h, 125 nM AF, 200 nM AI, 35 nM AJ
Description: Cellular microtubules in interphase and mitotic HeLa cells were visualized using indirect immunofluorescence techniques as previously described (Tinley et al., 2003). […] Representative images of interphase and mitotic cells were acquired using a Nikon Eclipse 80i fluorescence microscope and compiled using NIS Elements AR 3.0 software.
The effects of the taccalonolides on mitotic spindle structures were evaluated to test whether they caused mitotic spindle defects leading to cell cycle arrest. β-tubulin and DNA were visualized in HeLa cells by indirect immunofluorescence and DAPI staining, respectively. […] These mitotic cells contained multiple abnormal mitotic spindles, which is another common effect of microtubule stabilizing agents (FIGS. 4A-D).
The microtubule structures in mitotic cells were visualized by indirect immunofluorescence using a β-tubulin antibody.

## CC(=O)O[C@H]1C(=O)[C@@]2(C)[C@H]([C@H](OC(=O)c3ccccc3)[C@]3(O)C[C@H](OC(=O)[C@H](O)[C@@H](NC(=O)c4ccccc4)c4ccccc4)C(C)=C1C3(C)C)[C@]1(OC(C)=O)CO[C@@H]1C[C@@H]2O [Paclitaxel, paclitaxel, reference compound]
[1]; Homo sapiens, HeLa
  IC50: 17.8 ± 1.2 nM
[2]; Homo sapiens
  IC50: 3.8 ± 0.2 nM
[3]; Homo sapiens
  IC50: 785 ± 88 nM
[4]; Homo sapiens
  IC50: 3.7 ± 0.2 nM
MDA-MB-231-BR-Luc2 cells
  brain tumor photon counts, day 0: 1.8×10^4 photon counts
  brain tumor photon counts, day 7: 9.0×10^4 photon counts
HeLa cells [5]
  effect on mitotic progression / cell cycle distribution: mitotic arrest

## CC(=O)O[C@@H]1[C@H]2[C@H]3[C@H]([C@H](OC(C)=O)[C@H](OC(C)=O)[C@]2(C)[C@H]2[C@H](C)[C@H]4O[C@]45OC(=O)[C@@](C)(O)[C@]5(C)[C@@H]12)[C@]1(C)[C@H](C[C@@H]2O[C@@H]2[C@@H]1OC(C)=O)C(=O)[C@@H]3O [Taccalonolide AF]
HeLa cells [6]; HeLa IC50 ratio, parent/epoxide
  increase in potency as compared to the parent taccalonolide on C22-C23 epoxidation: 234 fold
HeLa cells [6]; HeLa cells, SRB assay, read-out: IC50
  IC50: 23 nM
HeLa cells [6]; HeLa, average of 3-4 independent experiments, read-out: IC50 for inhibition of cellular proliferation, HeLa
  IC50: 23.6 ± 2.1 nM
[1]; IC50 WTβIII divided by IC50 HeLa
  relative resistance (Rr): (1.3)
[1]
  IC50: 30.6 ± 3.3 nM
[2]
  IC50: 79.4 ± 3.5 nM
[3]; IC50 SK-OV-3/MDR-1-6/6 divided by IC50 SK-OV-3
  relative resistance (Rr): (4.6)
[3]
  IC50: 366 ± 30.6 nM
[4]
  IC50: 128 ± 16 nM
[7]
  rate and extent of tubulin polymerization: dramatically increased
[8]
  antitumor activity compared to vehicle treated controls: sufficient to observe antitumor activity
[8]; paclitaxel days 0, 2, 4 and 7
  antitumor activity compared to positive control 10 mg/kg paclitaxel: equivalent or greater than the positive control
MDA-MB-231-BR-Luc2 cells
  brain tumor photon counts, day 0: 2.2×10^3 photon counts
  brain tumor photon counts, day 7: undetectable
MDA-MB-231-BR-Luc2 cells; day 7, 60 seconds exposure, AF 2.2 mg/kg ip on days 0 and 4
  brain tumor photon count, day 7, longer exposure: 2.4×10^3 photon count
[9]
  cytotoxicity of normal cells: No cytotoxicity
HeLa cells [10]
  effect on mitotic spindle structures: mitotic arrest of cells with multiple abnormal mitotic spindles

Source: patent US20200071351A1, “TACCALONOLIDE MICROTUBULE STABILIZERS” (THE BOARD OF REGENTS OF THE UNIVERSITY OF TEXAS SYSTEM, priority 2016, published 2020)
